Assay results taken from ChEMBL document CHEMBL1155810, “Synthesis, structure-activity relationships, and biological profiles of a quinazolinone class of histamine H3 receptor inverse agonists” (J Med Chem, 2008).
The source made the active and inactive calls. The calls are words filed in the database; no cut-off is given here.

Columns and labels:
[1] = biological target: Histamine H3 receptor (Homo sapiens, UniProt Q9Y5N1); assay: Inverse agonist activity at human histamine H3 receptor expressed in CHO-K1 cells assessed as inhibition of N-alpha-methylhistamine-induced [35S]GTPgammaS binding; assay type: functional, cell-based
Sequence of Histamine H3 receptor (Homo sapiens, UniProt Q9Y5N1) (Q9Y5N1 whole entry): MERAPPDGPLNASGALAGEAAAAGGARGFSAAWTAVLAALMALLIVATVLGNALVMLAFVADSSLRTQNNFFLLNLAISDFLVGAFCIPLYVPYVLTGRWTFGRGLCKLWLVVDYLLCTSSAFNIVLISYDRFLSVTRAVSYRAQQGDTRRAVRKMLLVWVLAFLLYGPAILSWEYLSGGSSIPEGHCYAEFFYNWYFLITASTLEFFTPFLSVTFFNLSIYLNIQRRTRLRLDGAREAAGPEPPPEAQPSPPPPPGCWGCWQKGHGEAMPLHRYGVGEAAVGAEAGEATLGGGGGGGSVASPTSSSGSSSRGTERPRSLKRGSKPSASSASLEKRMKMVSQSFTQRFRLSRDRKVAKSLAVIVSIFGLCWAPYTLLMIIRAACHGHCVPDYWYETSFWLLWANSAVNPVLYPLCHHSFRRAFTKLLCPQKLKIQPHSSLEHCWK

[2] = biological target: Voltage-gated inwardly rectifying potassium channel KCNH2 (Homo sapiens, UniProt Q12809)
Sequence of Voltage-gated inwardly rectifying potassium channel KCNH2 (Q12809 whole entry): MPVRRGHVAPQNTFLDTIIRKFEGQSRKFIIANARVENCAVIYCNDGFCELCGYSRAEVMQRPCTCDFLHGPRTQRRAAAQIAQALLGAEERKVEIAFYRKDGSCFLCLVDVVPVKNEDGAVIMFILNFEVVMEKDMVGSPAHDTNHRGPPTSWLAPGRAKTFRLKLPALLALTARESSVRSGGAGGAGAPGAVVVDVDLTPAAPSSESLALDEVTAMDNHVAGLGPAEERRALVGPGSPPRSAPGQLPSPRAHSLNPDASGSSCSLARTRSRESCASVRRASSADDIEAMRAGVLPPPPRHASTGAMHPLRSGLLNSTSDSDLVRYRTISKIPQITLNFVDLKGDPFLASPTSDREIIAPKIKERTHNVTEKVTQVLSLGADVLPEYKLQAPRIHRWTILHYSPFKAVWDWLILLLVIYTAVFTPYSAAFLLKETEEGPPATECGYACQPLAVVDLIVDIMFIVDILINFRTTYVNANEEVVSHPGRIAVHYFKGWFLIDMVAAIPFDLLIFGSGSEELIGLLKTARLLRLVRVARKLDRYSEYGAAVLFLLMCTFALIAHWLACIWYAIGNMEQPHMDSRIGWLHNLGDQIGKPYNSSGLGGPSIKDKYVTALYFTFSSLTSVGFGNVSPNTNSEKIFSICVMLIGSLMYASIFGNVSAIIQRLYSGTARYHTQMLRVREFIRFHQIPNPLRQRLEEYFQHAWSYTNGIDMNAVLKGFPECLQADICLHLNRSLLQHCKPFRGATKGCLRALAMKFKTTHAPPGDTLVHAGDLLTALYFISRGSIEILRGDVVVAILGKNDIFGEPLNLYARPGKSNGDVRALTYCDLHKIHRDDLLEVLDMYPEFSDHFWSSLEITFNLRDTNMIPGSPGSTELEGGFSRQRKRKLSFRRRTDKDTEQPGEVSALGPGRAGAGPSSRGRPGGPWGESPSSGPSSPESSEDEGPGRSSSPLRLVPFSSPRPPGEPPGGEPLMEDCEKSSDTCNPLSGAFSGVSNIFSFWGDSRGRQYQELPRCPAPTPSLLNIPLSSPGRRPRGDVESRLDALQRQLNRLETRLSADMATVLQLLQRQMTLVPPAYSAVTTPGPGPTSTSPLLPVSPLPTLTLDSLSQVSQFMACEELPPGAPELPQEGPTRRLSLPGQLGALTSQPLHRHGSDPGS

[3] = Volume of distribution at steady state in Beagle dog at 1 mg/kg, iv; assay type: ADME, organism-based, Canis lupus familiaris; parameters: dose 1 mg/kg, route intravenous; details: in vivo, read-out: Vdss
[4] = biological target: T1, Cytochrome P450 1A2 (Homo sapiens, UniProt P05177); assay: Inhibition of CYP1A2; assay type: ADME
T1 sequence (P05177 whole entry): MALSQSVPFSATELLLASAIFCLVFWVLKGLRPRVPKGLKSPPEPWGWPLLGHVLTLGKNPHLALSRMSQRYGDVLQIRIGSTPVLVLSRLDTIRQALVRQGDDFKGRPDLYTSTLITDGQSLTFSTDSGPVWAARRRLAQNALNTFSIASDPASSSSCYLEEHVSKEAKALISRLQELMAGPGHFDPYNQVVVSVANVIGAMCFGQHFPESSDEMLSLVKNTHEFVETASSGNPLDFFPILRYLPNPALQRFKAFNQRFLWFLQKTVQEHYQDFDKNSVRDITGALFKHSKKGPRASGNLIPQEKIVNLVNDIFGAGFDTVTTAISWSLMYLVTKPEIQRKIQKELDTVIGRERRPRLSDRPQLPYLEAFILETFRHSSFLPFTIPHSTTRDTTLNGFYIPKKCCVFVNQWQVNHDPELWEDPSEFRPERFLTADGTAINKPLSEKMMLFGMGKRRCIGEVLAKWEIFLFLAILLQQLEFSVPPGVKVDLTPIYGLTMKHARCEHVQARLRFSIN

[5] = Ratio of drug level in Sprague-Dawley rat brain to plasma; assay type: ADME; details: read-out: BPR
[6] = biological target: Histamine receptor H3 (Macaca mulatta, UniProt Q865E1); assay: Displacement of [3H]N-alpha-methylhistamine from rhesus monkey histamine H3 receptor expressed in HEK293T cells; assay type: cell-based, HEK-293T
Sequence of Histamine receptor H3 (Q865E1 whole entry): as the sequence (Q9Y5N1 whole entry) above, with D148N, A240G, V282A, A289T, T290A, V300A, H442Q counted along it

[7] = Cmax in Beagle dog at 3 mg/kg, po; assay type: ADME, organism-based, Canis lupus familiaris; parameters: dose 3 mg/kg, route oral; details: in vivo
[8] = Volume of distribution at steady state in Sprague-Dawley rat at 1 mg/kg, iv; assay type: ADME, organism-based; parameters: dose 1 mg/kg, route intravenous; details: in vivo, read-out: Vdss
[9] = biological target: Histamine H1 receptor (Homo sapiens, UniProt P35367); assay: Inhibition of human histamine H1 receptor
Sequence of Histamine H1 receptor (P35367 whole entry): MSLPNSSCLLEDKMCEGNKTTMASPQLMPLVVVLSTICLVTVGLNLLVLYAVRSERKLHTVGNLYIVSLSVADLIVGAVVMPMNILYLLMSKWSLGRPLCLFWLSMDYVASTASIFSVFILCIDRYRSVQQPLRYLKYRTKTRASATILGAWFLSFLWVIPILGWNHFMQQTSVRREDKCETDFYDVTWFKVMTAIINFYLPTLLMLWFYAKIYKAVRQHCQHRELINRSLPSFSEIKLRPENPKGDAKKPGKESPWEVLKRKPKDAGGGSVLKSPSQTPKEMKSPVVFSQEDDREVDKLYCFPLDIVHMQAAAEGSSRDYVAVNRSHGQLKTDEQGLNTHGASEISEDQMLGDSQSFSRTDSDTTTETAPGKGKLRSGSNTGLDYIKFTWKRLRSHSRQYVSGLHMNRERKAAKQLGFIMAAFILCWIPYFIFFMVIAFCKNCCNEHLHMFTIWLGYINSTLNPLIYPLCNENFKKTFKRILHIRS

[10] = system: Rattus norvegicus; assay: Ex vivo increase in receptor occupancy of histamine H3 receptor in Sprague-Dawley rat brain at 30 mg/kg, po by autoradiography; assay type: functional
[11] = biological target: Histamine H3 receptor (Rattus norvegicus, UniProt Q9QYN8); assay: Displacement of [3H]N-alpha-methylhistamine from rat histamine H3 receptor expressed in HEK293 cells coexpressed with CRE-beta-lactamase; assay type: cell-based
Sequence of Histamine H3 receptor (Rattus norvegicus, UniProt Q9QYN8) (Q9QYN8 whole entry): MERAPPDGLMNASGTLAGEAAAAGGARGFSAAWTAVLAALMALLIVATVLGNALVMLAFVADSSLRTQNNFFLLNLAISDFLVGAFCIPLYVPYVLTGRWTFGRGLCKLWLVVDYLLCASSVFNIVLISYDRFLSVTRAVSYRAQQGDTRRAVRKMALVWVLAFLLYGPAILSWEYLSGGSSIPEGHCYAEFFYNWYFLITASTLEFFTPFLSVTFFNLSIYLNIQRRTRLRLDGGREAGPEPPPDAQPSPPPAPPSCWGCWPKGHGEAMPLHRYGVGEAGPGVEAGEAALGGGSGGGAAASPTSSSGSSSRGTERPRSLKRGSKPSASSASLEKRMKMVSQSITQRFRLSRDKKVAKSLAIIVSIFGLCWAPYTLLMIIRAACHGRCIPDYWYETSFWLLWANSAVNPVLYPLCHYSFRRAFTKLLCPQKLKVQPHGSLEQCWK

[12] = Oral bioavailability in Sprague-Dawley rat at 3 mg/kg; assay type: ADME, organism-based; details: in vivo
[13] = Half life in rhesus monkey at 1 mg/kg, iv; assay type: ADME, organism-based, Macaca mulatta; parameters: dose 1 mg/kg, route intravenous; details: in vivo
[14] = Plasma clearance in Sprague-Dawley rat at 1 mg/kg, iv; assay type: ADME, organism-based; parameters: dose 1 mg/kg, route intravenous
[15] = Ratio of drug level in wild type MDR1a-proficient CF1 mouse brain to plasma at 10 mg/kg, po after 2 hrs; assay type: ADME, organism-based; parameters: dose 10 mg/kg, route oral; details: read-out: BPR
[16] = AUC (0 to infinity) in rhesus monkey at 3 mg/kg, po; assay type: ADME, organism-based, Macaca mulatta; parameters: time infinity, dose 3 mg/kg, route oral; details: plasma
[17] = Plasma concentration in Sprague-Dawley rat at 10 mg/kg, po after 2 hrs; assay type: ADME, organism-based; parameters: dose 10 mg/kg, route oral
[18] = biological target: Cytochrome P450 3A4 (Homo sapiens, UniProt P08684); assay: Inhibition of CYP3A4; assay type: ADME
Sequence of Cytochrome P450 3A4 (P08684 whole entry): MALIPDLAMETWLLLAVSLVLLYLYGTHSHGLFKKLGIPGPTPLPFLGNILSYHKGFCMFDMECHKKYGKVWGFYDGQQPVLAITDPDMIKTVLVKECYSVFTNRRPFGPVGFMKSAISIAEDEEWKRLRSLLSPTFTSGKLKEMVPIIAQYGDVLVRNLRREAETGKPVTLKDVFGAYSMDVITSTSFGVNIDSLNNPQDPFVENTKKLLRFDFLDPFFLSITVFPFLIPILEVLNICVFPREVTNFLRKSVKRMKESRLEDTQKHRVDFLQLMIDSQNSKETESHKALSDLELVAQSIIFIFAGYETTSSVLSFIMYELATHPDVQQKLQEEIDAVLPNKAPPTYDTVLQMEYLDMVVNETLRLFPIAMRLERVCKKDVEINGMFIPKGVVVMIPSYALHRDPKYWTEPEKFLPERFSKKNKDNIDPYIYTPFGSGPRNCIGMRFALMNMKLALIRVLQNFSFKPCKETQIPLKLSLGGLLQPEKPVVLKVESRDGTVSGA

[19] = Oral bioavailability in rhesus monkey at 3 mg/kg; assay type: ADME, organism-based, Macaca mulatta; details: in vivo
[20] = Volume of distribution at steady state in rhesus monkey at 1 mg/kg, iv; assay type: ADME, organism-based, Macaca mulatta; parameters: dose 1 mg/kg, route intravenous; details: in vivo, read-out: Vdss
[21] = Plasma clearance in rhesus monkey at 1 mg/kg, iv; assay type: ADME, organism-based, Macaca mulatta; parameters: dose 1 mg/kg, route intravenous
[22] = Plasma clearance in Beagle dog at 1 mg/kg, iv; assay type: ADME, organism-based, Canis lupus familiaris; parameters: dose 1 mg/kg, route intravenous
[23] = species: Mus musculus; assay: Ex vivo receptor occupancy of […] histamine H3 receptor in MDR1a-deficient CF1 mouse brain; assay type: functional
[24] = Half life in Beagle dog at 1 mg/kg, iv; assay type: ADME, organism-based, Canis lupus familiaris; parameters: dose 1 mg/kg, route intravenous; details: in vivo
[25] = Ratio of drug level in MDR1a-deficient CF1 mouse brain to plasma at 10 mg/kg, po after 2 hrs; assay type: ADME, organism-based; parameters: dose 10 mg/kg, route oral; details: read-out: BPR
[26] = Cmax in Sprague-Dawley rat at 3 mg/kg, po; assay type: ADME, organism-based; parameters: dose 3 mg/kg, route oral; details: in vivo
[27] = biological target: Cytochrome P450 2D6 (Homo sapiens, UniProt P10635); assay: Inhibition of CYP2D6; assay type: ADME
Sequence of Cytochrome P450 2D6 (P10635 whole entry): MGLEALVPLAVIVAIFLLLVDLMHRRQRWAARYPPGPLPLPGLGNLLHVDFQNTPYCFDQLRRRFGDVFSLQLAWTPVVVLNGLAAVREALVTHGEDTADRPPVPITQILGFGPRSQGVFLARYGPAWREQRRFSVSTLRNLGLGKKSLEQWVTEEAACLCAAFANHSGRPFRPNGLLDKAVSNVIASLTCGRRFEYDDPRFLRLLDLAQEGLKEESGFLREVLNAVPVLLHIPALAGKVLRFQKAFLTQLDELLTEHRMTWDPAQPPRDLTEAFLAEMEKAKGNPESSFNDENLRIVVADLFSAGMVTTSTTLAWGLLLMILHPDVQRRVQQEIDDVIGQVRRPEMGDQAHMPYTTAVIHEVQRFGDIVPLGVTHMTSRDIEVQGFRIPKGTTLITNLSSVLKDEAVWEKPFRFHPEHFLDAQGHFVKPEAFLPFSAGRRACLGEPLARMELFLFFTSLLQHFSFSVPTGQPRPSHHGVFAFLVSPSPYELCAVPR

[28] = biological target: Histamine H4 receptor (Homo sapiens, UniProt Q9H3N8); assay: Inhibition of human histamine H4 receptor
Sequence of Histamine H4 receptor (Q9H3N8 whole entry): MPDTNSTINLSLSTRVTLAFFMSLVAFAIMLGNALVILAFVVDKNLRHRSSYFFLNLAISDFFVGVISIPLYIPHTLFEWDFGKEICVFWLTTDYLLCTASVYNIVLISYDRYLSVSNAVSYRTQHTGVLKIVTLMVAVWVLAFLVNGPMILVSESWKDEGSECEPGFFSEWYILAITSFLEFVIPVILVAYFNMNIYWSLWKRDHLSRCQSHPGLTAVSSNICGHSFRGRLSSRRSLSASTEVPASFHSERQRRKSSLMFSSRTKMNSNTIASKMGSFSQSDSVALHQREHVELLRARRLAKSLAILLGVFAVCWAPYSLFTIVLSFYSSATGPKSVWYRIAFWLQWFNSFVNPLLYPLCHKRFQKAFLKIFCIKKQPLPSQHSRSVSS

[29] = system: Rattus norvegicus; assay: Effect on histamine release in Sprague-Dawley rat brain assessed as increase in tele-methylhistamine level at 30 mg/kg, po after 2 hrs; assay type: functional, organism-based; parameters: dose 30 mg/kg
[30] = Half life in Sprague-Dawley rat at 1 mg/kg, iv; assay type: ADME, organism-based; parameters: dose 1 mg/kg, route intravenous; details: in vivo
[31] = Oral bioavailability in Beagle dog at 3 mg/kg; assay type: ADME, organism-based, Canis lupus familiaris; details: in vivo
[32] = biological target: Cytochrome P450 2C19 (Homo sapiens, UniProt P33261); assay: Inhibition of CYP2C19; assay type: ADME
Sequence of Cytochrome P450 2C19 (P33261 whole entry): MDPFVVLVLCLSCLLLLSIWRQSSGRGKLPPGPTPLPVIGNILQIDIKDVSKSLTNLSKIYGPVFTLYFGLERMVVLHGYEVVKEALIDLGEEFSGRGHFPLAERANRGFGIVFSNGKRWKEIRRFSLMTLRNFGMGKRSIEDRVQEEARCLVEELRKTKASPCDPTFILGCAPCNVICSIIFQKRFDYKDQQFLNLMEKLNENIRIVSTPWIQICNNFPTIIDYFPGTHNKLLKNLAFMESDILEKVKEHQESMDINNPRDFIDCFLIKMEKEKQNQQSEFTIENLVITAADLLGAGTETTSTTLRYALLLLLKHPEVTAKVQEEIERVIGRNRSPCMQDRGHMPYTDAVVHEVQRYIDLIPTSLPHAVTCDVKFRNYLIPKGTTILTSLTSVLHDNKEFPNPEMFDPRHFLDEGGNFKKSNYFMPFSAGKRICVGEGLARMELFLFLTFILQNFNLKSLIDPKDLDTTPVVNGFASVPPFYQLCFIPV

[33] = biological target: Histamine H2 receptor (Homo sapiens, UniProt P25021); assay: Inhibition of human histamine H2 receptor
Sequence of Histamine H2 receptor (P25021 whole entry): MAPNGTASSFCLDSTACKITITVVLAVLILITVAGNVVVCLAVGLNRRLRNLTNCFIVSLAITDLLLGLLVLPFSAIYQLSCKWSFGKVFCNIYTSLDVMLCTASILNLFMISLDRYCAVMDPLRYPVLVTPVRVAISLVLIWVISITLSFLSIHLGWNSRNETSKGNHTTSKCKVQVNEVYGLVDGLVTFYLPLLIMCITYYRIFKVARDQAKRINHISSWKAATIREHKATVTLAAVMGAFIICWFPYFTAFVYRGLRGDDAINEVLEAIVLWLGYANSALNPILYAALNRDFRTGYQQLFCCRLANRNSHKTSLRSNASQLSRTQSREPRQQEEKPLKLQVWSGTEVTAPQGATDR

[34] = species: Mus musculus; assay: Ex vivo receptor occupancy of […] histamine H3 receptor in MDR1a-deficient CF1 mouse plasma; assay type: functional
[35] = AUC (0 to infinity) in Sprague-Dawley rat at 3 mg/kg, po; assay type: ADME, organism-based; parameters: time infinity, dose 3 mg/kg, route oral; details: plasma
[36] = biological target: T2, Cytochrome P450 2A6 (Homo sapiens, UniProt P11509); assay: Inhibition of CYP2A6; assay type: ADME
T2 sequence (P11509 whole entry): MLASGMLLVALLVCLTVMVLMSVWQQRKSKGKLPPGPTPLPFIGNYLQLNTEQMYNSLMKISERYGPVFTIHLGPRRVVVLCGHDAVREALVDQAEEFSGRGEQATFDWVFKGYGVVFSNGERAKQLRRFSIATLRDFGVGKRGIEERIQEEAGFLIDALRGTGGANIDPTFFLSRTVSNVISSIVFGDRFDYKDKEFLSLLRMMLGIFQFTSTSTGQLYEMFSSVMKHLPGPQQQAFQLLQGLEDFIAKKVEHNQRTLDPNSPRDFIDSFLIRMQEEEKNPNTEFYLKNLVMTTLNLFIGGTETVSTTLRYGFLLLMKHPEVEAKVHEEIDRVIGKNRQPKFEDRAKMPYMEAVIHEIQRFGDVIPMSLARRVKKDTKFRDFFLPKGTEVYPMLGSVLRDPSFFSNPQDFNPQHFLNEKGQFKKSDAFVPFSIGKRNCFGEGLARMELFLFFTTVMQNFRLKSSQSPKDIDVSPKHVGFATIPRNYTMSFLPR

[37] = biological target: Cytochrome P450 2C9 (Homo sapiens, UniProt P11712); assay: Inhibition of CYP2C9; assay type: ADME
[38] = AUC (0 to infinity) in Beagle dog at 3 mg/kg, po; assay type: ADME, organism-based, Canis lupus familiaris; parameters: time infinity, dose 3 mg/kg, route oral; details: plasma
[39] = species: Mus musculus; assay: Ex vivo receptor occupancy of […] histamine H3 receptor in wild type MDR1a-proficient CF1 mouse plasma; assay type: functional
[40] = species: Mus musculus; assay: Ex vivo receptor occupancy of […] histamine H3 receptor in wild type MDR1a-proficient CF1 mouse brain; assay type: functional
[41] = Cmax in rhesus monkey at 3 mg/kg, po; assay type: ADME, organism-based, Macaca mulatta; parameters: dose 3 mg/kg, route oral; details: in vivo
[42] = system: Brain; assay: Drug level in Sprague-Dawley rat brain at 10 mg/kg, po after 2 hrs; assay type: ADME, organism-based; parameters: dose 10 mg/kg, route oral; details: in vivo

For `Cc1nc2ccccc2c(=O)n1-c1ccc(OCCCN2CCC(C)CC2)cc1`, the IC50 [1] was 23 nM.
Compound `Cc1nc2ccccc2c(=O)n1-c1ccc(OCCCN2CCCCC2)cc1` has an IC50 [1] of 3.1 nM.
In the case of `Cc1nc2ccccc2c(=O)n1-c1ccc(OCCCN2CCC(C)C2)cc1` (configuration not stated), the IC50 [2] is reported as 6400 nM and the IC50 [1] is reported as 5.8 nM.
`Cc1nc2ccccc2c(=O)n1-c1ccc(OCCCN2[C@H](C)CC[C@H]2C)cc1` gave an IC50 [1] of 20 nM.
With `Cc1nc2ccccc2c(=O)n1-c1ccc(OCCCN2CCCCC2C)cc1` (configuration not stated) the IC50 [1] was 11 nM.
`Cc1nc2ccccc2c(=O)n1-c1ccc(OCCCN2CCC[C@H](C)C2)cc1` showed an IC50 [2] of 5300 nM and an IC50 [1] of 0.72 nM.
In the case of `Cc1nc2ccccc2c(=O)n1-c1ccc(OCCCN2CC(C)CC(C)C2)cc1` (configuration not stated), the IC50 [1] is reported as 28 nM.
Work on `Cc1nc2ccccc2c(=O)n1-c1ccc(OCCCN2CCCCCC2)cc1` yielded an IC50 [1] of 1.6 nM.
`CCN(CC)CCCOc1ccc(-n2c(C)nc3ccccc3c2=O)cc1` gave an IC50 [1] of 33 nM.
Work on `Cc1nc2cccc(C(F)(F)F)c2c(=O)n1-c1ccc(OCCCN2CCCC2)cc1` [MK-0249] yielded a Vd [3] of 9.7 L/kg, an IC50 [4] greater than 27000 nM and a Kp [5] of 1.1. For the same compound, the Ki [6] was 4.3 nM, the Cmax [7] was 1800 nM and the Vd [8] was 4.4 L/kg. The IC50 [9] was greater than 10000 nM, the Activity [10] was greater than 90% and the Ki [11] was 33 nM. The bioavailability [12] was 65%, the half-life [13] was 5.4 h and the clearance [14] was 12 mL/min/kg. It also gave a Kp at 2 h [15] of 0.8, an AUC(0-inf) [16] of 1.84 µM·h and a concentration at 2 h [17] of 1580 nM. The IC50 [18] was greater than 27000 nM, the bioavailability [19] was 28% and the Vd [20] was 6 L/kg. It also gave a clearance [21] of 18 mL/min/kg, a clearance [22] of 19 mL/min/kg and an Occ90 [23] of 2 nmol/g. For the same compound, the half-life [24] was 9.9 h, the Kp at 2 h [25] was 14 and the Cmax [26] was 1010 nM. The IC50 [27] was greater than 27000 nM, the IC50 [28] was greater than 10000 nM and the Activity [29] was “Active”. It also gave a half-life [30] of 5.5 h, a bioavailability [31] greater than 100% and an IC50 [32] greater than 27000 nM. For the same compound, the IC50 [33] was greater than 10000 nM, the Occ90 [34] was 40 nM and the AUC(0-inf) [35] was 6.35 µM·h. The IC50 [36] was greater than 27000 nM, the IC50 [37] was greater than 21000 nM and the AUC(0-inf) [38] was 11.8 µM·h. The Occ90 [39] was 1.17 µM, the Occ90 [40] was 2 nmol/g and the Cmax [41] was 440 nM. The Drug uptake [42] was 1.67 nmol/g.
Compound `Cc1nc2ccccc2c(=O)n1-c1ccc(OCCCN2CCCCCCC2)cc1` has an IC50 [1] of 10 nM.
In the case of `Cc1nc2ccccc2c(=O)n1-c1ccc(OCCCN2CCC[C@H]2C)cc1`, the IC50 [2] is reported as greater than 10000 nM and the IC50 [1] is reported as 4.3 nM.
For `Cc1nc2ccccc2c(=O)n1-c1ccc(OCCCN2CCC[C@@H](C)C2)cc1`, the IC50 [1] was 41 nM.
For `Cc1nc2ccccc2c(=O)n1-c1ccc(OCCCN2CCC[C@@H]2C)cc1`, the IC50 [2] was 6000 nM and the IC50 [1] was 2.2 nM.
